Reference: publication PMC9820208, “A Chloroplast-Localized Glucose-6-Phosphate Dehydrogenase Positively Regulates Stripe Rust Resistance in Wheat” (International Journal of Molecular Sciences, 2022)

Test system: T1, TaG6PDH2 (TaG6PDH2-2D)
T1 construct: CDS in pET15b-sumo, E. coli BL21 (DE3), 6xHis and SUMO tags, about 75 kDa on gel; His-Trap FF purified fusion
Test: G6PDH activity, double-reciprocal plot ([…]/V vs. […]/[G6P])
Format: biochemical, Triticum aestivum
Details: purified His-SUMO fusion; assay conditions only by reference; read-out: KmG6P

Km: 1980 µM
Structure (SMILES): O=P(O)(O)OC[C@H]1OC(O)[C@H](O)[C@@H](O)[C@@H]1O (stereo partly shown) [G6P, glucose-6-phosphate]
